Reference: patent US20140005163A1 (NOVARTIS AG, priority 2010, published 2014)

Tests used:
[1] = target: T1, PI3K delta (Homo sapiens, UniProt O00329); experiment: PI3K delta kinase assay (Kinase-Glo luminescence); format: biochemical
T1 construct: for the full-length p110-d subunit are generated and fused by overlapping PCR; p85(iSH2) fusion partner (see partner chain) (N); His tag (C); made in house; host or cells: baculovirus; Tn5 (Trichoplusia ni) or TiniPro insect cells
How it was run: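 Kinase-Glo luminescence read-out of ATP remaining after 60 min at RT. Enzyme: 10 nM BV1060 (p85 iSH2–p110δ fusion, His-tagged); substrate 10 μg/mL PI, ATP 1 μM final; Tris pH 7.5 buffer with MgCl2, NaCl, CHAPS, DTT. IC50 from 4-parameter logistic fit over 8 concentrations.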

[2] = target: T2, PI3K beta (Homo sapiens, UniProt P42338); experiment: PI3K beta kinase assay (Kinase-Glo luminescence); format: biochemical
T2 construct: for the full-length p110-b subunit are generated and fused by overlapping PCR; p85(iSH2) fusion partner (see partner chain) (N); His tag (C); made in house; host or cells: baculovirus; Tn5 (Trichoplusia ni) or TiniPro insect cells
How it was run: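 IC50 is derived by four-parameter logistic curve fitting of Kinase-Glo luminescence, which measures ATP left after a 60 min room-temperature reaction. Conditions are 25 nM His-tagged p85(iSH2)-p110β, 1 μM ATP and 10 μg/mL bovine liver phosphatidylinositol.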

[3] = target: T3, mTOR (Homo sapiens, UniProt P42345); experiment: Biochemical assay for m-TOR by TR-FRET; details: 8 μM ATP, 400 nM GFP-4EBP1, 0.5 nM mTOR
T3 construct: purchased Invitrogen Corporation (Carlsbad/CA, USA) PV4753
How it was run: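 Enzyme 0.5 nM, GFP-4EBP1 400 nM, ATP 8 μM (all final); 50 mM HEPES pH 7.5, 10 mM MnCl2, 1 mM DTT; rt. Detection: Tb-α-p4EBP1 [pT46] 0.5 nM in EDTA, TR-FRET, 15 min. Reference compound on every plate, 16-point duplicate dilutions.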

T1 sequence (O00329 with tags, fused parts or gaps limits assumed): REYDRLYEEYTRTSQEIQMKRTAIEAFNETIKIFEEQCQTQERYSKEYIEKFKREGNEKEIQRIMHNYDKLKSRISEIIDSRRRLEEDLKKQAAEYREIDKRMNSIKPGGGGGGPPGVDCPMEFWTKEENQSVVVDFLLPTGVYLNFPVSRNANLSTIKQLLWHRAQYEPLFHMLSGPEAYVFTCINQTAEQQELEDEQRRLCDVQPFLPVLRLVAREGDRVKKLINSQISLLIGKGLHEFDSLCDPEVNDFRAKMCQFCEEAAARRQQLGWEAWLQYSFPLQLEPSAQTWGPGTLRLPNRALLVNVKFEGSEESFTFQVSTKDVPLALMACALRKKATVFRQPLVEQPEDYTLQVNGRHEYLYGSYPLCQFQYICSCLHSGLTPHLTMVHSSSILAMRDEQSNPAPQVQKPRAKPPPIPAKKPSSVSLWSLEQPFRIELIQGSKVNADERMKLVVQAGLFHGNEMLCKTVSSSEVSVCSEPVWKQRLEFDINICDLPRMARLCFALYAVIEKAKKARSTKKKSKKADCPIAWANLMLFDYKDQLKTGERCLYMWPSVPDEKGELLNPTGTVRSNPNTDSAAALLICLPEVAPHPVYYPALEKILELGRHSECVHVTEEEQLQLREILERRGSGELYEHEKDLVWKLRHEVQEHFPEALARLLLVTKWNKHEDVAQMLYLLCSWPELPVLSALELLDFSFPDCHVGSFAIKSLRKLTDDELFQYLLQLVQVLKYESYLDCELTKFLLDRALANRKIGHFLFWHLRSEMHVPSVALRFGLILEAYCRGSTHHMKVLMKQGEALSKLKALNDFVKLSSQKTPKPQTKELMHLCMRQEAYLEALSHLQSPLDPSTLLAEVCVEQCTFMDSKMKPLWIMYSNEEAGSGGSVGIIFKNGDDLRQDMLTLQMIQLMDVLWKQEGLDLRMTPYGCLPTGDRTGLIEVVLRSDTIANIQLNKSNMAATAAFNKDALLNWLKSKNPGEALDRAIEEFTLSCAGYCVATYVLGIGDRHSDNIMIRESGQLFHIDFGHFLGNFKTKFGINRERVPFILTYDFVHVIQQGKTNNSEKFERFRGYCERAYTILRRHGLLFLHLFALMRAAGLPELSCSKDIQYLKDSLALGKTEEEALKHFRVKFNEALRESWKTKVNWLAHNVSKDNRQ
T2 sequence (P42338 with tags, fused parts or gaps limits assumed): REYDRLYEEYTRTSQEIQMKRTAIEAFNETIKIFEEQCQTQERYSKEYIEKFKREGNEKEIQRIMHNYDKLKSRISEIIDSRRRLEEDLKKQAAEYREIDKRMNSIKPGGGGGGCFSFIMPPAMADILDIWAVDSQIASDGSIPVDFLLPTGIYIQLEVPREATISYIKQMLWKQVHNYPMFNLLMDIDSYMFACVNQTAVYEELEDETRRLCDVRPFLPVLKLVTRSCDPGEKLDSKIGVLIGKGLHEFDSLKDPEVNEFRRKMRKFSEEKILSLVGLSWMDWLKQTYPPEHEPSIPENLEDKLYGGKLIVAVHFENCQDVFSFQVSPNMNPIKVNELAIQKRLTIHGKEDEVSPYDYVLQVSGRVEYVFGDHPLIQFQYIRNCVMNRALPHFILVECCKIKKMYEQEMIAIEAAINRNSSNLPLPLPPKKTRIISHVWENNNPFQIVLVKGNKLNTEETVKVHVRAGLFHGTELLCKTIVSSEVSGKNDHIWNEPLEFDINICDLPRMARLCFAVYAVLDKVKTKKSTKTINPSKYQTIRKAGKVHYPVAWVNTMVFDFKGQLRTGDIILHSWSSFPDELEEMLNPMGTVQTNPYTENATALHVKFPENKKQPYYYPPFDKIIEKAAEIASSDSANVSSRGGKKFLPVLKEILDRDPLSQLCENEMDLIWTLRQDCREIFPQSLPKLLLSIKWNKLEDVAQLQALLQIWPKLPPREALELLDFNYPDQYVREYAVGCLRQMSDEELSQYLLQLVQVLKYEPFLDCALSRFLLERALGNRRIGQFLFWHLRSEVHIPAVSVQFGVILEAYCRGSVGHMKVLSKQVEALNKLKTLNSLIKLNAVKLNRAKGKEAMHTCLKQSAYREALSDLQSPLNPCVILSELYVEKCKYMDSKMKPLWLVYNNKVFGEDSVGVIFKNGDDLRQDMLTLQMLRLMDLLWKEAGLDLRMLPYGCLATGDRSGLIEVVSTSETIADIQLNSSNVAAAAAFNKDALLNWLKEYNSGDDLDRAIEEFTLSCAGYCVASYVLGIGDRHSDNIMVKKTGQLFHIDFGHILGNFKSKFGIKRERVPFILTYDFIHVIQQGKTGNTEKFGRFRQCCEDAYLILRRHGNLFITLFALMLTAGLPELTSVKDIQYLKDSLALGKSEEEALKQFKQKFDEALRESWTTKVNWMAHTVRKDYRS
T3 sequence (P42345 1360-2549 limits assumed): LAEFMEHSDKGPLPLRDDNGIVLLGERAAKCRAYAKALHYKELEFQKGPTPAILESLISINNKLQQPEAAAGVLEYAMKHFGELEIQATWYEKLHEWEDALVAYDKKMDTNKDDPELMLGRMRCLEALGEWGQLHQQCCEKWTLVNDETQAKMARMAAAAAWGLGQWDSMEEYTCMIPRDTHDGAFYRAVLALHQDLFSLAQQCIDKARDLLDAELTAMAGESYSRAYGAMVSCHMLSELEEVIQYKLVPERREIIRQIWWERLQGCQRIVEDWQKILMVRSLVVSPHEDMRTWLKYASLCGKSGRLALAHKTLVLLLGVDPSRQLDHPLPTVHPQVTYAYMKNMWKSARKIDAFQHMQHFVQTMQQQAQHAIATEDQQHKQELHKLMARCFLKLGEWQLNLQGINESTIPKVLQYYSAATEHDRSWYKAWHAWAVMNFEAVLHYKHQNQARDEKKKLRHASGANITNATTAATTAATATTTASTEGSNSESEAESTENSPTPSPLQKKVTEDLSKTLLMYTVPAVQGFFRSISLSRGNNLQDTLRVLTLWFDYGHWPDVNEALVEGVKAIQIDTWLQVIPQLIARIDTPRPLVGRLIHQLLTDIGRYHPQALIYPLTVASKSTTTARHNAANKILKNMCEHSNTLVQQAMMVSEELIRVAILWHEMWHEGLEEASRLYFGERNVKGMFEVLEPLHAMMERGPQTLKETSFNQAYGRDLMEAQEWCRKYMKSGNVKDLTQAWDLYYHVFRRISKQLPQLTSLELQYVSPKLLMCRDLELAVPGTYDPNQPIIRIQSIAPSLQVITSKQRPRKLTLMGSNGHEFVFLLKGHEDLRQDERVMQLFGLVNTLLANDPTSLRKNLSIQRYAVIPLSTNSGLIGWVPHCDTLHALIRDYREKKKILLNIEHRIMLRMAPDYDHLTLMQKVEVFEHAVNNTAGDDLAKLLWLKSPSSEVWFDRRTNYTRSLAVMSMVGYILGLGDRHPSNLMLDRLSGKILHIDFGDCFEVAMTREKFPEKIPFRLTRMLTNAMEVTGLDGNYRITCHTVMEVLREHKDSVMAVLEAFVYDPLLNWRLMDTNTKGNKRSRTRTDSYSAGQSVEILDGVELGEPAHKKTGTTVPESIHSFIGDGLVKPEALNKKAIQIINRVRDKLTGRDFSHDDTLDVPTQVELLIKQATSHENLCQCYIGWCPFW

Row | Compound | IC50 [1] [nM] | IC50 [2] [nM] | IC50 [3] [nM]
1 | COc1ncc(-c2ccc3ncc4c(c3c2)n(-c2cn(C)nc2Cl)c(=O)n4C)cc1CO [Example 200, 1-(3-Chloro-1-methyl-1H-pyrazol-4-yl)-8-(5-hydroxymethyl-6-methoxy-pyridin-3-yl)-3-methyl-1,3-dihydro-imidazo[4,5-c]quinolin-2-one] | 10 | 13 | 3
2 | COCc1cc(-c2ccc3ncc4c(c3c2)n(-c2cn(C)nc2Cl)c(=O)n4C)cnc1OC [Example 201, 1-(3-Chloro-1-methyl-1H-pyrazol-4-yl)-8-(6-methoxy-5-methoxymethyl-pyridin-3-yl)-3-methyl-1,3-dihydro-imidazo[4,5-c]quinolin-2-one] | < 3 | 6 | 27
3 | COc1cc(-c2ccc3ncc4c(c3c2)n(-c2cn(CCO)nc2C)c(=O)n4C)cnc1C [Example 211.1, 1-[1-(2-Hydroxy-ethyl)-3-methyl-1H-pyrazol-4-yl]-8-(5-methoxy-6-methyl-pyridin-3-yl)-3-methyl-1,3-dihydro-imidazo[4,5-c]quinolin-2-one] | 14 | 18 | 13
4 | Cc1nn(C(C)C)cc1-n1c(=O)n(C)c2cnc3ccc(-c4cncc(C(O)(CF)CF)c4)cc3c21 [Example 219, 8-[5-(2-Fluoro-1-fluoromethyl-1-hydroxy-ethyl)-pyridin-3-yl]-1-(1-isopropyl-3-methyl-1H-pyrazol-4-yl)-3-methyl-1,3-dihydro-imidazo[4,5-c]quinolin-2-one] | 13 | 49 | 139
5 | CCn1cc(-n2c(=O)n(C)c3cnc4ccc(-c5cncc(C6(C#N)CCC6)c5)cc4c32)c(C)n1 [Example 221.2, 1-{5-[1-(1-Ethyl-3-methyl-1H-pyrazol-4-yl)-3-methyl-2-oxo-2,3-dihydro-1H-imidazo[4,5-c]quinolin-8-yl]-pyridin-3-yl}-cyclobutanecarbonitrile] | 6 | 29 | 56
6 | CC(=O)Nc1cc(-c2ccc3ncc4c(c3c2)n(-c2cn(C)nc2C)c(=O)n4C)cnc1Cl [Example 222, N-{2-Chloro-5-[1-(1,3-dimethyl-1H-pyrazol-4-yl)-3-methyl-2-oxo-2,3-dihydro-1H-imidazo[4,5-c]quinolin-8-yl]-pyridin-3-yl}-acetamide] | 82 | 134 | 22
7 | Cc1nn(C)cc1-n1c(=O)n(C)c2cnc3ccc(-c4cnc(Cl)c(NS(C)(=O)=O)c4)cc3c21 [Example 223, N-{2-Chloro-5-[1-(1,3-dimethyl-1H-pyrazol-4-yl)-3-methyl-2-oxo-2,3-dihydro-1H-imidazo[4,5-c]quinolin-8-yl]-pyridin-3-yl}-methanesulfonamide] | 6 | 7 | < 3
8 | Cc1nn(C)cc1-n1c(=O)n(C)c2cnc3ccc(-c4cnc(N)c(C(=O)NC(C)C)c4)cc3c21 [Example 225, 2-Amino-5-[1-(1,3-dimethyl-1H-pyrazol-4-yl)-3-methyl-2-oxo-2,3-dihydro-1H-imidazo[4,5-c]quinolin-8-yl]-N-isopropyl-nicotinamide] | 26 | 44 | 26
9 | COCCNC(=O)c1cc(-c2ccc3ncc4c(c3c2)n(-c2cn(C)nc2C)c(=O)n4C)cnc1N [Example 226, 2-Amino-5-[1-(1,3-dimethyl-1H-pyrazol-4-yl)-3-methyl-2-oxo-2,3-dihydro-1H-imidazo[4,5-c]quinolin-8-yl]-N-(2-methoxy-ethyl)-nicotinamide] | 21 | 71 | 169
10 | COc1ncc(-c2ccc3ncc4c(c3c2)n(-c2cn(C(C)C)nc2C)c(=O)n4C)c(OC)n1 [Example 234.3, 8-(2,4-Dimethoxy-pyrimidin-5-yl)-1-(1-isopropyl-3-methyl-1H-pyrazol-4-yl)-3-methyl-1,3-dihydro-imidazo[4,5-c]quinolin-2-one] | < 3 | 150 | 17
11 | Cc1nn(C)cc1-n1c(=O)n(C)c2cnc3ccc(-c4cnc(CO)c(Cl)c4)cc3c21 [Example 238, 8-(5-Chloro-6-hydroxymethyl-pyridin-3-yl)-1-(1,3-dimethyl-1H-pyrazol-4-yl)-3-methyl-1,3-dihydro-imidazo[4,5-c]quinolin-2-one] | 473 | 103 | 174
12 | CCOC(C)(C)c1cncc(-c2ccc3ncc4c(c3c2)n(-c2cn(C)nc2C)c(=O)n4C)c1 [Example 240, 1-(1,3-Dimethyl-1H-pyrazol-4-yl)-8-[5-(1-ethoxy-1-methyl-ethyl)-pyridin-3-yl]-3-methyl-1,3-dihydro-imidazo[4,5-c]quinolin-2-one] | < 3 | 91 | 79
13 | C=CCn1c(=O)n(-c2cn(C)nc2C)c2c3cc(-c4cncc(N)c4)ccc3ncc21 [Example 246, 3-Allyl-8-(5-amino-pyridin-3-yl)-1-(1,3-dimethyl-1H-pyrazol-4-yl)-1,3-dihydro-imidazo[4,5-c]quinolin-2-one] | 10 | 82 | 147
